Data from the C3SDB collision cross section collection.
Where a name gives a salt, the structure may show the parent alone.

Settings: instrument: TW, calibrated with polyalanine and drug standards

Row | SMILES | collision cross section (N2) ([M+H]+) | other results
1 | CC(C)CC(NC(=O)OCC1c2ccccc2-c2ccccc21)C(=O)O (stereo in doubt) [N- (9-FLUORENYLMETHOXYCARBONYL)-L-LEUCINE] | – | collision cross section (N2) ([M+Na]+): 183.3 Å²
2 | COc1cc(OC)cc(OC)c1 [1,3,5-TRIMETHOXYBENZENE] | 130.6 Å² | –
3 | CC1(C)C2CC(=O)[C@]3(C)C(CC[C@@]4(C)[C@H](c5ccoc5)OC(=O)C5OC543)[C@@]2(C)[C@@H](O)C[C@H]1O (stereo partly specified) [1,3-DIDEACETYL-7-DEACETOXY-7-OXOKHIVORIN] | 200.2 Å² | –
4 | COc1cc(O)c(C(=O)/C=C/c2ccc(OC)c(O)c2)c(OC)c1 [2',3-DIHYDROXY-4,4',6'-TRIMETHOXYCHALCONE] | 177.1 Å² | –
5 | COc1ccc(/C=C/C(=O)c2ccc(O)cc2O)cc1 [2',4'-DIHYDROXY-4-METHOXYCHALCONE] | 162.2 Å² | –
6 | O=C(/C=C/c1ccccc1)c1ccc(O[C@@H]2O[C@H](CO)[C@@H](O)[C@H](O)[C@H]2O)cc1O [2',4'-DIHYDROXYCHALCONE 4'-GLUCOSIDE] | 200.6 Å² | –
7 | O=C(/C=C/c1ccc(O)cc1)c1ccccc1O [2',4-DIHYDROXYCHALCONE] | 153 Å² | –
8 | COc1ccc(/C=C/C(=O)c2cc(O)ccc2O)cc1 [2',5'-DIHYDROXY-4-METHOXYCHALCONE] | 162.1 Å² | –
9 | COc1ccc(-c2coc3cc(O)ccc3c2=O)c(OC)c1 [2'-METHOXYFORMONETIN] | 164.6 Å² | –
10 | COc1ccc(C(=O)c2ccc(O)cc2)c(O)c1O [2,3,4'-TRIHYDROXY-4-METHOXYBENZOPHENONE] | 152.9 Å² | –
11 | CCOc1ccc(C(=O)c2ccc(O)c(O)c2O)cc1 [2,3,4-TRIHYDROXY-4'-ETHOXYBENZOPHENONE] | 160.4 Å² | –
12 | COc1cc(O)c(C)c(O)c1 [2,6-DIHYDROXY-4-METHOXYTOLUENE] | 127.1 Å² | –
13 | COc1cc(OC)c2c(=O)c(-c3ccccc3)c(C)oc2c1OC [2-METHYL-5,7,8-TRIMETHOXYISOFLAVONE] | 173.6 Å² | –
14 | COc1ccc(-c2oc3cc(OC)c(OC)c(OC)c3c(=O)c2OC)cc1 [3,4',5,6,7-PENTAMETHOXYFLAVONE] | 181.9 Å² | –
15 | COc1ccc(-c2oc3ccccc3c(=O)c2OC)cc1 [3,4'-DIMETHOXYFLAVONE] | 159.1 Å² | –
16 | COc1ccc2oc(-c3ccccc3)c(OC)c(=O)c2c1 [3,6-DIMETHOXYFLAVONE] | 159.9 Å² | –
17 | COC(=O)C[C@H]1C(C)(C)[C@@H](O)[C@@H]2CC3=C4CC(O)O[C@@H](c5ccoc5)[C@]4(C)CCC3[C@@]1(C)C2=O (stereo partly drawn) [3,16-DIDEOXYMEXICANOLIDE-3beta-DIOL] | – | collision cross section (N2) ([M+Na]+): 202.8 Å²
18 | CC(=O)O[C@H]1C[C@@H](O)C(C)(C)C2C[C@@H](OC(C)=O)[C@]3(C)C(CC[C@@]4(C)[C@H](c5ccoc5)OC(=O)C5OC543)[C@]21C (stereo partly specified) [3-DEACETYLKHIVORIN] | 215.9 Å² | –
19 | CC(=O)O[C@H]1CC[C@@]2(C)C(C[C@@H](OC(C)=O)[C@@]3(C)C4=CC(=O)O[C@@H](c5ccoc5)[C@]4(C)CCC23)C1(C)C (stereo partly drawn) [3-DEOXO-3beta-ACETOXYDEOXYDIHYDROGEDUNIN] | 219.7 Å² | –
20 | C=C1[C@H]2CC[C@@]3(C)[C@H](c4ccoc4)OC(=O)C[C@]13O[C@H]1C[C@H](O)C(C)(C)[C@H](CC(=O)OC)[C@]12C [3-DEOXY-3beta-HYDROXYANGOLENSIC ACID METHYL ESTER] | 204.1 Å² | –
21 | COc1cccc(O)c1O [3-METHOXYCATECHOL] | 124.7 Å² | –
22 | CC1(C)CC23C(=O)CCC(O)C2(C)CCC13 (stereo unspecified) [3-NOR-3-OXOPANASINSAN-6-OL] | 146.1 Å² | –

Row | SMILES | collision cross section (N2) ([M+H]+) | other results
23 | S=c1ccss1 [3H-1,2-DITHIOLE-3-THIONE] | 120.4 Å² | –
24 | CC(=O)O[C@@H]1CC[C@@]2(C)C(C[C@@H](OC(C)=O)[C@@]3(C)C4=CC(=O)O[C@@H](c5ccoc5)[C@]4(C)CCC23)C1(C)C (stereo partly drawn) [3alpha-ACETOXYDIHYDRODEOXYGEDUNIN] | 218 Å² | –
25 | CC(=O)O[C@H]1CC[C@@]2(C)C(C[C@@H](OC(C)=O)[C@]3(C)C2CC[C@@]2(C)[C@H](c4ccoc4)OC(=O)[C@H]4O[C@]423)C1(C)C (stereo partly drawn) [3beta-ACETOXYDEOXODIHYDROGEDUNIN] | 219.2 Å² | –
26 | CC(=O)O[C@@H]1CC2C(C)(CC[C@H](O)C2(C)C)C2CC[C@]3(C)C(=CC(=O)O[C@H]3c3ccoc3)C21C (stereo partly drawn) [3beta-HYDROXYDEOXODIHYDRODEOXYGEDUNIN] | 207.1 Å² | –
27 | COc1ccc(C(=O)/C=C/c2ccccc2)cc1 [4'-METHOXYCHALCONE] | 153.8 Å² | –
28 | Cc1c(O)c(=O)n(-c2ccccc2)n1C [4-HYDROXYANTIPYRINE] | 141.4 Å² | –
29 | COc1ccc(-c2cc(=O)c3c(O)cc(OC)c(OC)c3o2)c(OC)c1 [5-HYDROXY-2',4',7,8-TETRAMETHOXYFLAVONE] | 182 Å² | –
30 | COc1ccc(-c2coc3cc(OC)ccc3c2=O)cc1 [7,4'-DIMETHOXYISOFLAVONE] | 160.3 Å² | –
31 | Cn1c(=O)c2[nH]c(C3CCCC3)nc2n(C)c1=O [8-CYCLOPENTYLTHEOPHYLLINE] | 158.6 Å² | –
32 | COC(=O)C[C@H]1C(C)(C)C2(O)OC34CC2C(=O)[C@]1(C)C3CC[C@]1(C)C4=CC(=O)O[C@H]1c1ccoc1 (stereo partly drawn) [8beta-HYDROXYCARAPIN, 3,8-HEMIACETAL] | 208.8 Å² | –
33 | CC[C@@]1(O)C(=O)OCc2c1cc1n(c2=O)Cc2cc3cc(O)ccc3nc2-1 [10-HYDROXYCAMPTOTHECIN] | 187 Å² | –
34 | COc1ccc2c(c1)OC1(O)COc3cc(OC)c(OC)cc3C1=C2 (stereo unspecified) [12a-HYDROXY-5-DEOXYDEHYDROMUNDUSERONE] | – | collision cross section (N2) ([M+H-H2O]+): 173 Å²
35 | COc1ccc(-c2cc(=O)c3c(OC(C)=O)cc(OC(C)=O)cc3o2)cc1 [ACACETIN DIACETATE] | 184.8 Å² | –
36 | CC(=O)OC1CN2CCC1CC2 (stereo unspecified) [ACECLIDINE] | 136.2 Å² | –
37 | CC(=O)Nc1ccc(S(=O)(=O)c2ccc(NC(C)=O)cc2)cc1 [ACEDAPSONE] | 171.2 Å² | –
38 | CC(=O)c1ccc(S(=O)(=O)NC(=O)NC2CCCCC2)cc1 [ACETOHEXAMIDE] | 178.2 Å² | –
39 | CC(=O)N[C@@H](Cc1c[nH]c2ccccc12)C(=O)O [ACETYLTRYPTOPHAN] | 152.3 Å² | –
40 | Nc1nc(=O)c2ncn(COCCO)c2[nH]1 [ACYCLOVIR] | 146.5 Å² | –
41 | Nc1ncnc2c1ncn2[C@@H]1O[C@H](COP(=O)(O)O)[C@@H](O)[C@H]1O [ADENOSINE PHOSPHATE] | 167.6 Å² | –
42 | CC(C)C[C@H](NC(=O)[C@H](C)N)C(=O)O [ALANYL-dl-LEUCINE] | 152.5 Å² | –
43 | NCCCNCCSP(=O)(O)O [AMIFOSTINE] | 146.9 Å² | –
44 | Nc1cc(-c2ccncc2)c[nH]c1=O [AMRINONE] | 139 Å² | –

Row | SMILES | collision cross section (N2) ([M+H]+) | other results
45 | COc1ccc2c(=O)c(CC(=O)O)coc2c1 [ANHYDROBRAZILIC ACID] | 143.1 Å² | –
46 | CN1C2C[C@H](OC(=O)[C@H](CO)c3ccccc3)C[C@H]1[C@@H](O)C2 [ANISODAMINE HYDROBROMIDE] | 171.1 Å² | –
47 | O=c1cc(-c2ccc(O)cc2)oc2cc(O[C@@H]3O[C@H](CO)[C@@H](O)[C@H](O)[C@H]3O[C@@H]3OC[C@](O)(CO)[C@H]3O)cc(O)c12 [APIIN] | 229.3 Å² | –
48 | O=C1CCc2ccc(OCCCCN3CCN(c4cccc(Cl)c4Cl)CC3)cc2N1 [ARIPIPRAZOLE] | 203.5 Å² | –
49 | c1cc2c(cc1[C@H]1OC[C@H]3[C@@H]1CO[C@H]3c1ccc3c(c1)OCO3)OCO2 [ASARININ (-)] | 171 Å² | –
50 | CCCCCCCCCCCCCCCC(=O)OC[C@H](O)[C@H]1OC(=O)C(O)=C1O [ASCORBYL PALMITATE] | 204.8 Å² | –
51 | COC(=O)[C@H](Cc1ccccc1)NC(=O)[C@@H](N)CC(=O)O [ASPARTAME] | 167.6 Å² | –
52 | CC(C)=CCC/C(C)=C/COc1ccc2ccc(=O)oc2c1 [AURAPTENE] | 158.3 Å² | –
53 | COc1ccc(C(=O)CC(=O)c2ccc(C(C)(C)C)cc2)cc1 [AVOBENZONE] | 181.2 Å² | –
54 | C#CCCCCCCCCCCCC(O)CC(O)COC(C)=O (stereo unspecified) [AVOCADYNE ACETATE] | – | collision cross section (N2) ([M+Na]+): 184 Å²
55 | O=C(CCCN1CCN(c2ccccn2)CC1)c1ccc(F)cc1 [AZAPERONE] | 180 Å² | –
56 | Cn1cnc([N+](=O)[O-])c1Sc1ncnc2nc[nH]c12 [AZATHIOPRINE] | 155.1 Å² | –
57 | O=c1cc(-c2ccccc2)oc2cc(O)c(O)c(O)c12 [BAICALEIN] | 153.8 Å² | –
58 | CCCCCCCCCCCCCCCCCCOCC(O)CO (stereo unspecified) [BATYL ALCOHOL] | – | collision cross section (N2) ([M+Na]+): 202.8 Å²
59 | O=C(CCCl)NCc1ccccc1 [BECLAMIDE] | 142.3 Å² | –
60 | NS(=O)(=O)c1cc2c(cc1C(F)(F)F)NC(Cc1ccccc1)NS2(=O)=O (stereo unspecified) [BENDROFLUMETHIAZIDE] | 188.6 Å² | –
61 | O=C(Oc1cccc2cccnc12)c1ccccc1 [BENZOXIQUINE] | 153.8 Å² | –
62 | C[N+](C)(CCOc1ccccc1)Cc1ccccc1 [BEPHENIUM] | – | collision cross section (N2) ([M]+): 162.3 Å²
63 | CN1CCc2cc3c(cc2[C@H]1[C@@H]1OC(=O)c2c1ccc1c2OCO1)OCO3 [BICUCULLINE (+)] | 180 Å² | –
64 | c1ccc(-c2ccc(C(c3ccccc3)n3ccnc3)cc2)cc1 (stereo unspecified) [BIFONAZOLE] | 184.8 Å² | –
65 | O=C(/C=C/C(=O)Oc1ccccc1C(=O)O)Oc1ccccc1C(=O)O [BISSALICYL FUMARATE] | 171.1 Å² | –
66 | O=C1C=CC2=C3c4cc(O)c(O)cc4CC3(O)COC2=C1 (stereo unspecified) [BRAZILEIN] | 159.9 Å² | –
